Each compound was assayed against T1, GCase (Homo sapiens, UniProt P04062) (assay: activation of GCase in a live cell PFB assay in HELA cells).
T1 construct: endogenous in cells; host or cells: HeLa cells
T1 sequence (P04062 40-536): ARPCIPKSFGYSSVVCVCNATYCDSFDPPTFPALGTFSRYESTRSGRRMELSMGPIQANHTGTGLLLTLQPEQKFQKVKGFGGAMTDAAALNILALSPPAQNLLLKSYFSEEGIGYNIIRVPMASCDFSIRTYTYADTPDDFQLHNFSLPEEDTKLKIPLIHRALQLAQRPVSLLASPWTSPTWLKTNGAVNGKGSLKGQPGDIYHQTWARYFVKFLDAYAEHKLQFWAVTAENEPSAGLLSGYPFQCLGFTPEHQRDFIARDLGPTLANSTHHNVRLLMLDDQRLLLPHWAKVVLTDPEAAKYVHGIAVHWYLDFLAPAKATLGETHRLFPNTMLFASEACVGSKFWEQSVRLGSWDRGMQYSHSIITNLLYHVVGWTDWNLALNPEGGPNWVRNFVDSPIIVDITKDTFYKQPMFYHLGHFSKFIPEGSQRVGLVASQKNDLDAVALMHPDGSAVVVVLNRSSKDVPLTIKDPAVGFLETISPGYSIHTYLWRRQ
Assay type: cell-based

EC50, > 100 µM:
NCCn1cc(C(=O)N2CCC(COc3ccc4c(c3)CCC4)CC2)nn1 [Compound 440]
Cc1nccn1CCCC(=O)N1CCC(OCc2ccccc2)CC1 [Compound 451]
COc1ccc(OCC2CCN(C(=O)c3cnc(N)nc3C)CC2)cc1 [Compound 462]
C[C@H]1CCN(c2cnc3cnn(CC(F)F)c3n2)C[C@H]1COc1cccnc1C(F)(F)F [Compound 48b, 1-(2,2-difluoroethyl)-6-((3S,4S)-4-methyl-3-(((2-(trifluoromethyl)pyridin-3-yl)oxy)methyl)piperidin-1-yl)-1H-pyrazolo[3,4-b]pyrazine]
O=C(c1cc(CC2CC2)on1)N1CCCC(COc2ccccc2)C1 (stereo not drawn) [Compound 188]

EC50, < 10 µM:
C[C@@H]1C[C@H](COc2cccnc2C(F)(F)F)CN(c2cnc3cnn(CC(F)F)c3n2)C1 [Compound 94, 1-(2,2-Difluoroethyl)-6-((3R,5S)-3-methyl-5-(((2-(trifluoromethyl)pyridin-3-yl)oxy)methyl)piperidin-1-yl)-1H-pyrazolo[3,4-b]pyrazine]
FC(F)Cn1ncc2ncc(N3CCC(COc4ccc(C(F)(F)F)nc4)CC3)nc21 [Compound 316, 1-(2,2-Difluoroethyl)-6-(4-(((6-(trifluoromethyl)pyridin-3-yl)oxy)methyl)piperidin-1-yl)-1H-pyrazolo[3,4-b]pyrazine]
C[C@H]1C[C@@H](COc2cccnc2C(F)(F)F)CN(c2cnc3cnn(CC4COC4)c3n2)C1 (single isomer, unassigned) [Compound 233b]
CC1CCC(COc2cccnc2C(F)(F)F)CN1c1cnc2cnn(CC3COC3)c2n1 (stereo not drawn) [Compound 118, 6-(2-Methyl-5-(((2-(trifluoromethyl)pyridin-3-yl)oxy)methyl)piperidin-1-yl)-1-(oxetan-3-ylmethyl)-1H-pyrazolo[3,4-b]pyrazine]
FC1(COc2cccc(C(F)(F)F)n2)CCCN(c2cncc(-c3nncs3)n2)C1 (stereo not drawn) [Compound 65, 2-[3-Fluoro-3-({[6-(trifluoromethyl)pyridin-2-yl]oxy}methyl)piperidin-1-yl]-6-(1,3,4-thiadiazol-2-yl)pyrazine]
CC(Oc1cccnc1C(F)(F)F)C1CCCN(c2cnc3cnn(CC(F)F)c3n2)C1 (stereo not drawn) [Compound 26, 1-(2,2-Difluoroethyl)-6-(3-(1-((2-(trifluoromethyl)pyridin-3-yl)oxy)ethyl)piperidin-1-yl)-1H-pyrazolo[3,4-b]pyrazine]
Cc1cnccc1-c1ccc(C(=O)N2CCCC(COc3ccccc3)C2)s1 (stereo not drawn) [Compound 142]
FC(F)Cn1ncc2ncc(N3CCC(F)(F)C(COc4cccnc4C(F)(F)F)C3)nc21 (stereo not drawn) [Compound 20, 3-({1-[1-(2,2-difluoroethyl)-1H-pyrazolo[3,4-b]pyrazin-6-yl]-4,4-difluoropiperidin-3-yl}methoxy)-2-(trifluoromethyl)pyridine]
O=C(N1CCCC(COc2ccccc2)C1)C1(c2cnc(-c3ccccc3)s2)CCOCC1 (stereo not drawn) [Compound 279, (3-(Phenoxymethyl)piperidin-1-yl)(4-(2-phenylthiazol-5-yl)tetrahydro-2H-pyran-4-yl)methanone]

EC50, 50 to 100 µM:
O=C(c1cnn[nH]1)N1CCC(COc2ccc3c(c2)CCC3)CC1 [Compound 423]
COc1ccc(OCC2CCN(C(=O)NCCc3cn[nH]c3)CC2)cc1 [Compound 432]
CCn1cc(-c2cccc(C(=O)N3CCC(OCc4ccccc4)CC3)c2)cn1 [Compound 476]
O=C(c1ccc2cc[nH]c2c1)N1CCC(OCc2ccccc2)CC1 [Compound 415, 6-[4-(Benzyloxy)piperidine-1-carbonyl]-1H-indole]
CCc1nc(CNC(=O)N2CCC(COc3ccc(OC)cc3)CC2)no1 [Compound 460]
COc1ccc(OCC2CCN(C(=O)c3cnc[nH]3)CC2)cc1 [Compound 463]

EC50, 10 to 50 µM:
FC(F)Cn1ncc2ncc(N3CC(COc4cccnc4C(F)(F)F)CC(F)(F)C3)nc21 (stereo not drawn) [Compound 21, 3-({1-[1-(2,2-difluoroethyl)-1H-pyrazolo[3,4-b]pyrazin-6-yl]-5,5-difluoropiperidin-3-yl}methoxy)-2-(trifluoromethyl)pyridine]
O=C(c1ccc(F)c(OC(F)(F)F)c1)N1CCCC(COc2ccccc2)C1 (stereo not drawn) [Compound 217]
CCn1ncc2ncc(N3CCCC(COc4ccccc4C(F)(F)F)C3)nc21 (stereo not drawn) [Compound 16, 1-{1-ethylpyrazolo[3,4-b]pyrazin-6-yl}-3-[2-(trifluoromethyl)phenoxymethyl]piperidine]
Cc1ccccc1OCC1CCCN(C(=O)c2cnn3c(-c4ccccc4)ccc(Cl)c23)C1 (stereo not drawn) [Compound 25, (4-Chloro-7-phenylpyrazolo[1,5-a]pyridin-3-yl)(3-((o-tolyloxy)methyl)piperidin-1-yl)methanone]
CCNC(=O)c1ccc(N2CCC(COc3ccc(OC)cc3)CC2)nc1 [Compound 438]
FC(F)Cn1ncc2ncc(N3CCC(COc4cccc(C(F)(F)F)n4)CC3)nc21 [Compound 328, 2-({1-[1-(2,2-Difluoroethyl)-1H-pyrazolo[3,4-b]pyrazin-6-yl]piperidin-4-yl}methoxy)-6-(trifluoromethyl)pyridine]
O=C(C1CCCCC12CC2)N1CCCC(COc2ccccc2)C1 (stereo not drawn) [Compound 209]
FC(F)Cn1ncc2ncc(N3CCCC(F)(COc4cccnc4C(F)(F)F)C3)nc21 (stereo not drawn) [Compound 35, 3-({1-[1-(2,2-Difluoroethyl)-1H-pyrazolo[3,4-b]pyrazin-6-yl]-3-fluoropiperidin-3-yl}methoxy)-2-(trifluoromethyl)pyridine]
FC(F)Cn1ncc2ncc(N3C[C@@H]4[C@@H](COc5cnccc5C(F)(F)F)[C@@H]4C3)nc21 [Compound 91, (1R,5S,6S)-3-[1-(2,2-difluoroethyl)-1H-pyrazolo[3,4-b]pyrazin-6-yl]-6-({[4-(trifluoromethyl)pyridin-3-yl]oxy}methyl)-3-azabicyclo[3.1.0]hexane]
C[C@H]1CCN(c2cnc3cnn(CC(F)F)c3n2)C[C@@H]1COc1cccnc1C(F)(F)F [Compound 48c, 1-(2,2-difluoroethyl)-6-((3R,4S)-4-methyl-3-(((2-(trifluoromethyl)pyridin-3-yl)oxy)methyl)piperidin-1-yl)-1H-pyrazolo[3,4-b]pyrazine]
O=C(c1ccc2cc[nH]c2c1)N1CCC(Oc2ccncc2C(F)(F)F)CC1 [Compound 318, (1H-Indol-6-yl)(4-((3-(trifluoromethyl)pyridin-4-yl)oxy)piperidin-1-yl)methanone]
C[C@@H]1CC[C@H](COc2ncccc2C(F)(F)F)CN1c1cnc2cnn(CC(F)F)c2n1 [Compound 277, 1-(2,2-Difluoroethyl)-6-((2R,5S)-2-methyl-5-(((3-(trifluoromethyl)pyridin-2-yl)oxy)methyl)piperidin-1-yl)-1H-pyrazolo[3,4-b]pyrazine]
Cc1cccc(-c2ccccc2C(=O)N2CCCC(COc3ccccc3)C2)c1 (stereo not drawn) [Compound 187]
O=C(Cc1c[nH]c2ccccc12)N1CCC(Oc2ccc(C(F)(F)F)cn2)CC1 [Compound 7]
COc1ccc(OCC2CCN(C(=O)c3cc(C)oc3C)CC2)cc1 [Compound 459]
COc1ccc(OCC2CCN(CC(=O)Nc3cn(C)nc3C)CC2)cc1 [Compound 479]
COc1cc(C(=O)N2CCCC(COc3ccccc3)C2)c(Cl)cc1Cl (stereo not drawn) [Compound 155]
O=C(c1ccc2ccn(C3COC3)c2c1)N1CCC[C@H](CCc2ccccc2C(F)(F)F)C1 [Compound 19, 1-(oxetan-3-yl)-6-[(3S)-3-{2-[2-(trifluoromethyl)phenyl]ethyl}piperidine-1-carbonyl]-1H-indole]
COC1(C(=O)N2CCCC(COc3ccccc3)C2)CCCCCCC1 (stereo not drawn) [Compound 176]
O=C(N1CCC(Oc2ccc(C(F)(F)F)cn2)CC1)C1(c2ccccc2)CCOCC1 [Compound 381]
O=C(c1ccc2cc[nH]c2c1)N1CCC(Oc2cncc(C(F)(F)F)c2)CC1 [Compound 307, (1H-Indol-6-yl)(4-((5-(trifluoromethyl)pyridin-3-yl)oxy)piperidin-1-yl)methanone]
O=C(N1CCC(Oc2ccccc2)CC1)C1(c2ccccc2)CCCC1 [Compound 404, 4-Phenoxy-1-(1-phenylcyclopentanecarbonyl)piperidine]
Cn1c(-c2ccccc2)c(C(=O)N2CCCC(COc3ccccc3OC(F)(F)F)C2)c2nccnc21 (stereo not drawn) [Compound 236, (5-Methyl-6-phenyl-5H-pyrrolo[2,3-b]pyrazin-7-yl)(3-((2-(trifluoromethoxy)phenoxy)methyl)piperidin-1-yl)methanone]
O=C(c1ccc2c(c1)CCCC2)N1CCC(Oc2ccccc2)CC1 [Compound 407, 4-Phenoxy-1-(5,6,7,8-tetrahydronaphthalene-2-carbonyl)piperidine]
O=C(Cc1cc(Cl)cs1)N1CCCC(COc2ccccc2)C1 (stereo not drawn) [Compound 161]
CCCCC1(C(=O)N2CCCC(COc3ccccc3)C2)CCC1 (stereo not drawn) [Compound 177]
COc1ccc(OCC2CCN(C(=O)c3ccc(C#CC(C)(C)O)o3)CC2)cc1 [Compound 433]
CCn1ncnc1CN1CCC(COc2ccc(OC)cc2)CC1 [Compound 455]

Reference: US20240262832A1, “SMALL MOLECULE MODULATORS OF GLUCOCEREBROSIDASE ACTIVITY AND USES THEREOF” (Vanqua Bio, Inc., priority 2021, published 2024)
